Our source for the AC50 and Activity values is ChEMBL document CHEMBL5131435, “Boronic acid derivative activates pyruvate kinase M2 indispensable for redox metabolism in oral cancer cells” (Bioorg Med Chem Lett, 2022).

Type in all cases: cell-based
Assay [1] has as its target T1, Pyruvate kinase PKM (Homo sapiens, UniProt P14618). Kind of assay: Activation of PKM2 in human CAL-27 cells measured after 3 hrs.
The target in assay [2] is T1, Pyruvate kinase PKM. Kind of assay: Activation of PKM2 in human CAL-27 cells assessed as decrease in GSH level at 52 nM. The following applies: filed as activator.
Target sequence in this assay (P14618 2-531 limits assumed): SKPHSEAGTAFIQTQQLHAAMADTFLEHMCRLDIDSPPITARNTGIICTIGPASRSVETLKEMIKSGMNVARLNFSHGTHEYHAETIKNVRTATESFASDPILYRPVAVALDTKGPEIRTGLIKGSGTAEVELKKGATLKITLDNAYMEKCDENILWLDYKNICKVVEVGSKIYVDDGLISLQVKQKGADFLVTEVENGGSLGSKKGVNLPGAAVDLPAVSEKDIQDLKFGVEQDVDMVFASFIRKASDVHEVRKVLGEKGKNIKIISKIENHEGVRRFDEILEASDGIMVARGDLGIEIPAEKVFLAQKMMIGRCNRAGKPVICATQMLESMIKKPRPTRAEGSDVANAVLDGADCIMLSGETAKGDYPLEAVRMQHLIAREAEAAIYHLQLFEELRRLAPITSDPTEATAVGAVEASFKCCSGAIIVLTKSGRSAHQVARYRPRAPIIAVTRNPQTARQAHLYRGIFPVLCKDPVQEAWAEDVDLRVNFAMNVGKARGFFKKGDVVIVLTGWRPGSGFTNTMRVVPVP
Assay [3] has as its target T1, Pyruvate kinase PKM. Kind of assay: Activation of PKM2 in human CAL-27 cells assessed as increased in TPI1 activity at 52 nM measured after 3 hrs. Particulars: filed as activator.
Target sequence in this assay (P14618 2-531 limits assumed): as above
Assay [4] deals with T1, Pyruvate kinase PKM. Kind of assay: Activation of PKM2 in human CAL-27 cells assessed as increased in TPI1 activity at 12.5 to 50 nM measured after 3 hrs. The following applies: filed as activator, dose 12.5-50 nM.
Target sequence in this assay (P14618 2-531 limits assumed): as above
Assay [5] deals with T1, Pyruvate kinase PKM. Kind of assay: Activation of PKM2 in human CAL-27 cells assessed as decrease in GSH level at 12.5 to 50 nM. Particulars: filed as activator, dose 12.5-50 nM.
Target sequence in this assay (P14618 2-531 limits assumed): as above
Assay [6] addresses T1, Pyruvate kinase PKM. The experiment in a line: Activation of PKM2 in human CAL-27 cells assessed as decrease in lactate levels at 12.5 to 50 nM. The following applies: filed as activator, dose 12.5-50 nM.
Target sequence in this assay (P14618 2-531 limits assumed): as above
The target of assay [7] is T1, Pyruvate kinase PKM. The experiment in a line: Activation of PKM2 in human CAL-27 cells assessed as decrease in NADP+/NADPH ratio at 12.5 to 50 nM. Particulars: filed as activator, dose 12.5-50 nM.
Target sequence in this assay (P14618 2-531 limits assumed): as above

Structures are written as SMILES. Activity calls are given as the source filed them. No cut-off for these calls is given here.

On Pyruvate kinase PKM [1], `Nc1cccc(S(=O)(=O)N2CCCN(S(=O)(=O)c3ccc4c(c3)OCCO4)CC2)c1` yielded an AC50 of 52 nM. The result on Pyruvate kinase PKM [2] and on Pyruvate kinase PKM [3] was Active.

Turning to `CCOC(=O)/C(=C\c1ccc(B(O)O)cc1)C(=O)c1sc(Nc2ccc(Cl)cc2)nc1N(C)C`, the result at Pyruvate kinase PKM [4], at Pyruvate kinase PKM [5], on Pyruvate kinase PKM [6] and at Pyruvate kinase PKM [7] was Active. The same molecule registered a concentration at half-maximal activity (AC50) at Pyruvate kinase PKM [1] of 50 nM. Moreover, the Activity entry at Pyruvate kinase PKM [1] (filed as activator, dose 10-100 nM, DDE = dose-dependent effect) was “Dde”.
